Source: patent publication US20220281910A1, “DINUCLEOTIDE COMPOUNDS FOR TREATING CANCERS AND MEDICAL USES THEREOF” (PINOTBIO, INC., priority 2019, published 2022)

Legend:
Type in all cases: cell-based
[1] = tested on: NCI-H2286; assay: Cell viability assay (CellTiterGlo), NCI-H2286; conditions: Homo sapiens; NCI-H2286, origin NSCLC; 72 h
Protocol: (§1) The test compounds and bortezomib (positive control) were solved in DMSO as 5 mM solution, which was aliquoted, frozen at −20° C. and thawed just prior addition by nanodrop dispensing. Compound treatment of cells started one day after seeding with a final DMSO concentration of 0.1% and was generally performed by nanodrop-dispensing using a Tecan Dispenser. 0.1% DMSO (solvent) and Staurosporine (1.0E-05 M) served as high control (100% viability) and low control (0% viability), respectively.
(§2) Cells were cultured in different media. For the assays, cells were seeded in white cell culture-treated flat and clear bottom multiwell plates and incubated at 37° C. before the compound was added. After incubation for 72 h at 37° C. at 5% or 10% CO2 dependent on the medium, cell plates were equilibrated to room temperature for one hour, CellTiterGlo reagent (Promega) was added and luminescence was measured ap-proximately an hour later using a luminometer.
(§3) Raw data were converted into percent cell viability relative to the high and low control, which were set to 100% and 0%, respectively. IC50 calculation was performed using GraphPad Prism software with a variable slope sigmoidal response fitting model using 0% viability as bottom constraint and 100% viability as top constraint.

[2] = tested on: MV4-11; assay: Cell viability assay (CellTiterGlo), MV4-11; conditions: Homo sapiens; MV4-11, origin AML; 72 h
Protocol: as §1, §2, §3

[3] = tested on: A375; assay: Cell viability assay (CellTiterGlo), A375; conditions: Homo sapiens, A-375; A375, origin Skin; 72 h
Protocol: as §1, §2, §3

[4] = tested on: DU-145; assay: Cell viability assay (CellTiterGlo), DU-145; conditions: Homo sapiens; DU-145, origin Prostate; 72 h
Protocol: as §1, §2, §3

[5] = tested on: H460; assay: Cell viability assay (CellTiterGlo), H460; conditions: Homo sapiens, NCI-H460; H460, origin NSCLC; 72 h
Protocol: as §1, §2, §3

CC(C)C[C@H](NC(=O)[C@H](Cc1ccccc1)NC(=O)c1cnccn1)B(O)O [Bortezomib, bortezomib] showed an IC50 [1] of 6.6 nM, an IC50 [2] of 3.8 nM and an IC50 [3] of 8.5 nM. The IC50 [4] was 11 nM and the IC50 [5] was 16 nM.
